IC50 data for eleven compounds are collected here from patent publication US7960562B2, “Propane-1,3-dione derivative or salt thereof” (Astellas Pharma Inc., priority 2005, dated 2011).

The target of one assay is T1, human GnRH receptor (Homo sapiens, UniProt P30968).
T1 sequence (P30968 1-328): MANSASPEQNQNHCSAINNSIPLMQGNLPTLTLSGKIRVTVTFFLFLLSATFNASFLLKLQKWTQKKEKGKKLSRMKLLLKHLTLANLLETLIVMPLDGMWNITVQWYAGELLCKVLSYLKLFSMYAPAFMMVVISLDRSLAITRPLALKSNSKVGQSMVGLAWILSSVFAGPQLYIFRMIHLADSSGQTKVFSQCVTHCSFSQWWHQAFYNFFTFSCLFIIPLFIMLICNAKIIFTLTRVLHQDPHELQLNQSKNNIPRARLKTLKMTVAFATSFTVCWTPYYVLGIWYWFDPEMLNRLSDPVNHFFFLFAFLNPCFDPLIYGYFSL
Nature of the assay: Test for GnRH receptor antagonistic effect (inhibition of 125I-D-Trp6-LHRH binding). The note with it: Table 1; read-out: IC50 (concentration that inhibits 50% of the binding of 125I-D-Trp6-LHRH to a human GnRH receptor). The protocol: The GnRH receptor antagonistic effects of the compounds of the present invention were evaluated by calculating their concentration that inhibit 50% of the binding of ^125I-D-Trp^6-LHRH to a human GnRH receptor (IC50), according to the description in Patent Reference 1, page 56 “1. Test for GNRH Receptor Antagonistic Effect”.
Accordingly, for confirming the usefulness of “group of —SO2—R^3”, the activities of the compounds of the present invention was compared with those of the comparative compounds having —CO—R^3 group.
With `CC(C)(O)C(=N)NS(=O)(=O)c1cccc(C(=O)C(C(=O)c2cccc(F)c2)=C2Nc3ccccc3N2)c1` [Example 211], the IC50 amounted to 0.094 nM.
Consider `CC(=N)NS(=O)(=O)c1cccc(C(=O)C(C(=O)c2cccc(F)c2)=C2Nc3ccccc3N2)c1` [Example 245], for which the IC50 stood at 0.058 nM.
On to `CC(C)(O)C(=N)NS(=O)(=O)c1cc(C(=O)C(C(=O)c2cccc(F)c2)=C2Nc3ccccc3N2)ccc1F` [Example 662], for which the IC50 is 0.24 nM.
On to `C[C@@H](O)C(=N)NS(=O)(=O)c1cc(C(=O)C(C(=O)c2cccc(F)c2)=C2Nc3ccccc3N2)ccc1F` [Example 696, (2R)-N-({5-[2-(1,3-dihydro-2H-benzimidazol-2-ylidene)-3-(3-fluorophenyl)-3-oxopropanoyl]-2-fluorophenyl}sulfonyl)-2-hydroxypropanimidamide], for which the IC50 worked out at 0.18 nM.

The same assay, now with this note: Table 2; read-out: IC50 (GnRH receptor binding), SO2-R3 compounds versus comparative CO-R3 compounds.
In the case of `CC(=O)NC(N)=NC(=O)c1cccc(C(=O)C(C(=O)c2cc(F)cc(F)c2)=C2Nc3ccccc3N2)c1` [Comparative Example 3, reference compound], the IC50 worked out at 16 nM.
As to `CC(=N)NS(=O)(=O)c1cccc(C(=O)C(C(=O)c2cc(F)cc(F)c2)=C2Nc3ccccc3N2)c1` [Example 73], the IC50 came out at 0.053 nM.
In the case of `CC(=O)NC(N)=NS(=O)(=O)c1cccc(C(=O)C(C(=O)c2cc(F)cc(F)c2)=C2Nc3ccccc3N2)c1` [Example 74], the IC50 was determined as 0.56 nM.
In the case of `O=C(C(C(=O)c1cccc(S(=O)(=O)NCCO)c1)=C1Nc2ccccc2N1)c1cc(F)cc(F)c1` [Example 77], the IC50 stood at 0.066 nM.
As for `NC(N)=NS(=O)(=O)c1cccc(C(=O)C(C(=O)c2cc(F)cc(F)c2)=C2Nc3ccccc3N2)c1` [Example 89], the IC50 came out at 0.022 nM.
For the compound `CC(=N)NC(=O)c1cccc(C(=O)C(C(=O)c2cc(F)cc(F)c2)=C2Nc3ccccc3N2)c1` [compound 1, reference compound], the IC50 was found to be 7.1 nM.
For the compound `O=C(NCCO)c1cccc(C(=O)C(C(=O)c2cc(F)cc(F)c2)=C2Nc3ccccc3N2)c1` [compound 4, reference compound], the IC50 was 9.6 nM.
